These results are taken from patent JP2022155560A, “スガマデクスの光分解抑制方法” (Fuji Pharma Co Ltd, priority 2021, dated 2022).

Series [1] in a line: Photostability of sugammadex sodium solution in glass containers with or without light-cutting film (Example 1, HPLC). The format is physicochemical. Particulars: for total amount of substances other than sugammadex: n=3.
Series [2] in a line: Formation of sugammadex photodegradant (disulfide, printed ジスルフィド体) on light irradiation (Example 2, HPLC). The settings on record: after light irradiation, n=3. The format is physicochemical.
Where [3] appears, read: after light irradiation (1,200,000 lux·h, 280 W·h/m2), UVcut 500 film compared with UVcut 400 film.
[4] abbreviates: after light irradiation (1,200,000 lux·h, 280 W·h/m2), film-wrapped samples (UVcut 400 or UVcut 500), compared with no film wrapping.

With `O=C([O-])CCSC[C@H]1O[C@@H]2O[C@H]3[C@H](O)[C@@H](O)[C@@H](O[C@H]4[C@H](O)[C@@H](O)[C@@H](O[C@H]5[C@H](O)[C@@H](O)[C@@H](O[C@H]6[C@H](O)[C@@H](O)[C@@H](O[C@H]7[C@H](O)[C@@H](O)[C@@H](O[C@H]8[C@H](O)[C@@H](O)[C@@H](O[C@H]9[C@H](O)[C@@H](O)[C@@H](O[C@H]1[C@H](O)[C@H]2O)O[C@@H]9CSCCC(=O)[O-])O[C@@H]8CSCCC(=O)[O-])O[C@@H]7CSCCC(=O)[O-])O[C@@H]6CSCCC(=O)[O-])O[C@@H]5CSCCC(=O)[O-])O[C@@H]4CSCCC(=O)[O-])O[C@@H]3CSCCC(=O)[O-].[Na+].[Na+].[Na+].[Na+].[Na+].[Na+].[Na+].[Na+]` [スガマデクス, octakis(6-S-(2-carboxyethyl)-6-thio)cyclomaltooctaose octasodium salt], in series [1] (setting [3]), the “effect of suppressing increase of photodegradation products” value is “顕著に高かった” and the purity of sugammadex entry is “純度が高く”. Further, in series [1] (setting [4]), the “increase in total amount of substances other than sugammadex” value is reported as “増大が抑えられており” and the “residual rate of sugammadex” value is recorded as “残存率が高かった”. Further, the “total amount of substances other than sugammadex” value in series [1] (after light irradiation (1,200,000 lux·h, 280 W·h/m2), no film wrapping) was 5.12%. The “total amount of substances other than sugammadex” value in series [1] (before light irradiation, no film wrapping, 100 mg/mL aqueous solution, pH 7-8) is listed as 2.14%. The photodegradation of sugammadex entry in series [1] (chromatograms before vs after light irradiation, no film wrapping) is “光照射により分解されたことが確認された”. The “formation of sugammadex disulfoxide (スガマデクスのジスルフィド体 in the source)” value in series [2] (light up to 400 nm cut, relative to sample without film wrapping) is listed as “フィルム包装なしのサンプルの半分程度”. Also, the “formation of sugammadex disulfoxide (スガマデクスのジスルフィド体 in the source)” value in series [2] (light up to 500 nm cut) is “ほとんど生成されていなかった”.
